Measured values published in PubChem BioAssay (NCI).
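Interpolation was linear, between the two tested concentrations surrounding the appropriate level; five concentrations were tested over 48 hours in 96-well plates. GI50 = concentration required for 50% inhibition of growth. TGI marks complete inhibition of growth.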

Columns and labels:
Experiment in all cases: NCI anticancer screen, dose series, 48 h
[1] = tested on: SK-MEL-28 melanoma
[2] = tested on: SK-MEL-5 melanoma
[3] = tested on: CCRF-CEM leukemia
[4] = tested on: COLO 205 colon
[5] = tested on: OVCAR-4 ovarian
[6] = tested on: HL-60(TB) leukemia
[7] = tested on: OVCAR-3 ovarian
[8] = tested on: HT29 colon
[9] = tested on: SW-620 colon
[10] = tested on: SF-539 CNS
[11] = tested on: IGROV1 ovarian
[12] = tested on: LOX IMVI melanoma
[13] = tested on: NCI-H226 lung
[14] = tested on: HOP-62 NSCLC
[15] = tested on: MDA-N
[16] = tested on: PC-3 prostate
[17] = tested on: MDA-MB-231 breast
[18] = tested on: HS 578T breast

Row | SMILES | TGI [1] [µM] | TGI [2] [µM] | TGI [3] [µM] | TGI [4] [µM] | TGI [5] [µM] | TGI [6] [µM] | TGI [7] [µM] | TGI [8] [µM] | TGI [9] [µM] | TGI [10] [µM] | TGI [11] [µM] | TGI [12] [µM] | TGI [13] [µM] | TGI [14] [µM] | TGI [15] [µM] | TGI [16] [µM] | TGI [17] [µM] | TGI [18] [µM] | GI50 [3] [µM] | GI50 [12] [µM]
1 | O=c1[nH]c(=O)n(C2OC(CO)C(O)C2O)cc1NN=NCc1ccccc1 (stereo not drawn) | > 100 | > 100 | > 100 | > 100 | > 100 | > 96.8 | > 100 | > 100 | > 67.8 | > 100 | > 100 | > 100 | > 100 | > 100 |  |  |  |  |  | 
2 | Cc1cc(C)nc(NC(=O)c2ccc(Br)s2)c1 | > 100 | 17.6 | 15.6 | 23.5 | > 100 |  | > 100 | > 100 | > 100 | > 100 | > 100 | > 100 | > 100 | > 100 | > 100 | > 100 | 81.6 |  |  | 
3 | O=c1[nH]c2c(nc1NC13CC4CC(CC(C4)C1)C3)c(=O)oc1ccccc12 | > 100 | > 100 | > 100 | > 100 |  | > 100 | > 100 | > 100 | > 100 | 35.8 | > 100 | > 100 | 85.6 | > 100 |  |  |  |  |  | 
4 | COC(=O)c1cc2c3c(ccc2[nH]1)N(C(=O)c1cc2cc(OC)c(OC)c(OC)c2[nH]1)CC3CCl (stereo not drawn) | > 100 | > 100 | > 100 | > 20.9 | > 100 |  | > 100 | > 75.8 | > 100 | > 79.2 | > 100 | > 100 | > 75 | > 72 |  | > 100 | > 100 | > 100 |  | 
5 | CCOC(=O)C1(C#N)C(c2ccccc2)CC(O)(c2ccc(OC)cc2)C(C(=O)c2ccc(OC)cc2)C1c1ccccc1 (stereo not drawn) | > 100 | > 100 | > 100 | > 100 | > 100 | > 100 | > 100 | > 100 | > 100 |  | > 100 | > 100 | > 100 | > 100 |  |  |  |  |  | 
6 | Oc1c(C2=NNC(c3ccc(Cl)cc3Cl)C2)ccc2ccccc12 (stereo not drawn) | > 100 | > 100 | 32.8 | > 100 | > 100 |  | > 100 | > 100 | > 100 | > 100 | > 100 |  | > 100 | > 100 | 55.5 | > 100 | > 100 | > 100 |  | 
7 | CC(C)C(=O)[C@@]1(C)SC[C@H]2CCN=C21 | > 100 | > 100 | > 100 | > 100 | > 100 | > 100 | > 100 | > 100 | > 100 | > 100 | > 100 | > 100 | > 100 |  | > 100 |  |  | > 100 |  | 
8 | COc1cc(C(=O)n2c3ccc(Br)cc3c3nc4ccccc4nc32)cc(OC)c1OC | > 100 | > 100 | > 100 | > 100 | > 100 | > 100 | > 100 | > 100 | > 100 | > 100 | > 100 | > 100 | > 100 | > 100 | > 100 | > 100 | > 100 |  |  | 
9 | NC1CC(=O)c2c(Br)csc21 (stereo not drawn) | 79.9 | > 100 | > 100 | > 100 |  | 81.9 | > 100 | > 100 | 77.7 | > 100 | > 100 |  |  | > 100 | > 100 | > 100 | > 100 |  |  | 
10 | CCN(CC)CC1CCCCCCCCCCC1=O (stereo not drawn) | > 100 | > 100 | > 100 | > 100 | > 100 | > 100 | > 100 | > 100 | > 100 |  | > 100 | > 100 | > 100 | > 100 |  |  |  |  |  | 
11 | CCCCc1c(N(C)C)c(OC(C)=O)c(-c2cn(C)c3ccccc23)oc1=O | 57.9 | 26.8 | > 100 | 44.1 | > 100 | 51.1 | 67.9 | 47.5 | > 100 | 47.5 |  |  | 36.8 | 55.7 | 44.8 | 50.9 |  | > 100 |  | 
12 | O=C(NC(Cc1c[nH]c2ccccc12)C(=O)Nc1ccc(Br)cc1)OCc1ccccc1 (stereo not drawn) | 30.5 | 22.5 | 36 | 24.7 | 23.6 | 22.2 | 36.6 | 21.6 | 54.6 | 29.2 | 27.6 | 22.7 | 31.4 | 23.7 |  | 24.5 | 22.9 | 56.3 |  | 
13 | Cc1cc(N)c(C)c2c1[nH]c1ccc(O)cc12 | > 100 |  | 91.5 | > 100 | > 100 | > 100 | > 100 | > 100 | > 100 | > 100 |  | > 100 | > 100 | > 100 |  |  |  |  |  | 
14 | Cc1cc2c(cc1Cl)SC(NS(=O)(=O)c1ccc(Cl)cc1)=NS2(=O)=O | > 100 | > 100 | > 100 | > 100 | > 100 | > 100 | > 100 | > 100 | > 100 | 73.9 | > 100 | > 100 | > 100 | > 100 |  |  | > 100 | > 100 |  | 
15 | Oc1cn(-c2ccc(Cl)cc2)nc1-c1nnc(-c2ccccc2)o1 | 53.1 | 5.13 | > 100 | > 49.8 | > 100 | 17.7 | 11.6 | 27.6 | 36.4 | 27 | > 53.4 | 20.5 | 30.7 | 4.64 |  | > 66.6 | 36.1 | 40.8 | 2.46 | 1.63
16 | CNc1ccc(C(=O)CC(O)CCC(C)C2OC(=O)CC(O)CC(=O)CC(O)CC(O)CC(O)CC(O)CC3(O)CC(O)C(C(=O)NCCN(C)C)C(CC(OC4OC(C)C(O)C(NC(=O)CN5CCN(C)CC5)C4O)/C=C/C=C/C=C/C=C\C=C/C=C/C=C/C2C)O3)cc1 (stereo not drawn) | 45.7 |  |  | > 100 | > 100 | > 100 |  | 9.92 | > 100 | > 100 | > 100 |  | > 100 | > 100 | > 100 | > 100 | > 100 |  |  | 
17 | FC(F)(F)c1ccc(N=C/C=C(/Nc2ccc(C(F)(F)F)cc2)c2ccc(Cl)cc2)cc1 | 33.4 | 22.2 | > 100 | 32.6 | 49.8 | 65.5 | 27.9 | 24.8 | 32.8 | 31.3 | 25.5 | 19.3 | 32.3 | 40.1 |  | 75.8 | 37.7 | 38.2 |  | 
18 | CC(=O)Nc1ccc(C(=O)NN2C(=O)CSC2c2ccc([N+](=O)[O-])cc2)cc1 (stereo not drawn) | > 100 | > 100 | > 100 | > 100 | > 100 |  | > 100 | > 100 | > 100 | > 100 | > 100 |  | > 100 | > 100 | > 100 |  | > 100 | > 100 |  | 
19 | CCCN=C(N)NC#N | > 100 | > 100 |  | 32.9 | > 100 | > 100 | > 100 | > 100 | 30.8 | > 100 | > 100 |  | > 100 | > 100 |  |  |  |  |  | 
20 | CCCCN(CCCC)CC(O)c1cc(-c2ccc(C(F)(F)F)cc2)nc(-c2ccc(C(F)(F)F)cc2)c1 (stereo not drawn) | > 100 |  | > 100 | > 100 | > 100 | > 100 | > 100 | > 100 | > 100 | > 100 | > 100 | > 100 |  | > 100 |  | > 100 | > 100 |  |  | 
21 | COc1cc(C(Cc2ccccc2)NC(C)=O)oc(=O)c1 (stereo not drawn) | > 100 | > 100 | > 100 | > 100 | > 100 | > 100 | > 100 | > 100 | > 100 |  | > 100 | > 100 | > 100 | > 100 |  |  |  |  |  | 
22 | CC1(C)COC(c2cccnc2/C=N/O)=N1 | > 100 | > 100 | > 100 | > 100 | > 100 | > 100 | > 100 | > 100 | > 100 | > 100 | > 100 | > 100 | > 100 | > 100 |  |  |  |  |  | 
23 | CO/N=C/c1cc(OC)c(OC)c(OC)c1 | > 100 | > 100 | > 100 | > 100 | > 100 | > 100 | > 100 | > 100 | > 100 | > 100 | > 100 | > 100 | > 100 | > 100 |  |  |  |  |  | 
24 | CCOc1cc2c(OCc3ccccc3)cc3c4cc(OC)c(OC)cc4c[n+](C)c3c2cc1OC |  |  | 23 | 0.481 | > 100 |  | 6.17 | 11.1 |  | 5.43 |  |  | 9.71 | 19.6 |  | 4.84 | 6.65 |  |  | 
25 | CCOC(=O)C1=C(C)N(Cc2ccc(Cl)cc2Cl)C2(O)C=CC(=O)C3C(=O)N(c4ccccc4)C(=O)C132 (stereo not drawn) | 3.53 | 8.57 | 1.4 | 3.36 | 4.2 | 6.67 | 3.44 | 3.5 | 5.97 | 5.38 | 3.51 | 2.38 | 3.09 | 29.5 |  | 3.55 | 6.44 | 36.3 |  | 
26 | CS(=O)(=O)O[C@H]1CN2C[C@@H](O)[C@@H](O)[C@H]2[C@H]1CO | > 100 | > 100 | > 100 | > 100 | > 100 |  | > 100 | > 100 | > 100 | > 100 | > 100 | > 100 | > 100 | > 100 |  | > 100 | > 100 |  |  | 
27 | COc1ccc(C2C(Cl)C(=O)N2n2cnc3ccccc3c2=O)cc1 (stereo not drawn) | > 100 | > 100 |  | > 100 | > 100 | > 100 | > 100 | > 100 | > 100 |  | > 100 | > 100 | > 100 | > 100 |  |  |  |  |  | 
28 | COc1cc2cc3c4c(cc(OC)c(OC)c4c2cc1OC)CCN3C(=O)OCCN1CCNCC1 | 36.6 | 28.2 | 44.6 | 20.9 | 31.3 | 30 | 28.8 | 25.8 | 28.1 | 28.4 | 32.2 | 26.6 | 28.1 | 31.5 |  |  |  |  |  | 
29 | CCCCS(=O)CCC(N)P(=O)(O)O (stereo not drawn) | > 100 | > 100 | > 100 | > 100 | > 100 | > 100 | > 100 | > 100 | > 100 |  | > 100 | > 100 | > 100 | > 100 | > 100 | > 100 |  | > 100 |  | 
30 | COc1cc(/C=C2\C[C@H]3[C@@H]4CCc5cc(O)ccc5[C@H]4CC[C@]3(C)C2=O)cc(OC)c1OC | 24.8 | 38.4 | 27.4 | 61.5 | 72.8 |  | 26.9 | 25 | 34.1 | 90.5 | 32.8 | 30.7 | 32 | 27.9 | 62.3 | 25.5 | 43.9 |  |  | 
